{
  "source": "patent US8697641B2",
  "about": "“4-amino-4-oxobutanoyl peptide cyclic analogues, inhibitors of viral replication” (Achillion Pharmaceuticals, Inc., priority 2008, dated 2014)",
  "data": [
    {"test_system": "Hepatitis C replicon", "assay": "HCV replicon assay (NPT ELISA readout) in Huh-7 replicon-containing cells", "type": "cell-based, Hepatitis C virus", "settings": "Hepatitis C virus, 72 h; HCV replicon in Huh-7 cells, three days incubation", "summary_of_the_method": "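Replication is measured as neomycin phosphotransferase level by captured ELISA after three days of compound exposure (typically 10 to 0.03 μM, 6 concentrations) at 37 °C. Cells are Huh-7 harbouring an HCV replicon with neo gene and NS3-NS5B; interferon alpha is the positive control.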", "units": {"EC50": "nM"}, "values": [
      {"smiles": "CCS(=O)(=O)N1CCN(C(=O)C[C@H]2CCCCC/C=C\\[C@@H]3C[C@@]3(C(=O)NS(=O)(=O)C3CC3)NC(=O)[C@@H]3C[C@@H](Oc4cc(-c5ccccc5)nc5cc(OC)ccc45)CN3C2=O)CC1", "note": "[Compound 86, (2R,6R,14aR,16aS,Z)-N-(cyclopropylsulfonyl)-6-(2-(4-(ethylsulfonyl)piperazin-1-yl)-2-oxoethyl)-2-(7-methoxy-2-phenylquinolin-4-yloxy)-5,16-dioxo-1,2,3,5,6,7,8,9,10,11, 13a,14,14a,15,16,16a-hexadecahydrocyclopropa [e]pyrrolo[1,2-a][1,4] diazacyclopentadecine-14a-carboxamide]", "EC50": "< 1000"},
      {"smiles": "COc1ccc2c(O[C@@H]3C[C@H]4C(=O)N[C@]5(C(=O)NS(=O)(=O)C6CC6)C[C@H]5/C=C\\CCCCC[C@H](CC(=O)N5[C@H](C)CCC[C@@H]5C)C(=O)N4C3)cc(-c3ccccc3)nc2c1", "note": "[Compound 99, (2R,6R,14aR,16aS,Z)-N-(cyclopropylsulfonyl)-6-(2-((2R,6S)-2,6-dimethylpiperidin-1-yl)-2-oxoethyl)-2-(7-methoxy-2-phenylquinolin-4-yloxy)-5,16-dioxo-1,2,3,5,6,7,8,9,10,11, 13a,14,14a,15,16,16a-hexadecahydrocyclopropa [e]pyrrolo[1,2-a][1,4] diazacyclopentadecine-14a-carboxamide]", "EC50": "< 1000"},
      {"smiles": "CCOC(=O)[C@@]12C[C@H]1/C=C\\CCCCC[C@H](CC(=O)OC(C)(C)C)C(=O)N1C[C@H](Oc3cc(-c4ccccc4)nc4cc(OC)ccc34)C[C@H]1C(=O)N2", "note": "[Compound 46, (2R,6R,13aS,14aR, 16aS,Z)-ethyl 6-(2-tert-butoxy-2-oxoethyl)-2-(7-methoxy-2-phenylquinolin-4-yloxy)-5,16-dioxo-1,2,3,5,6,7,8,9,10,11, 13a,14,14a,15,16,16a-hexadecahydrocyclopropa [e]pyrrolo[1,2-a][1,4] diazacyclopentadecine-14a-carboxylate]", "EC50": "> 10000"},
      {"smiles": "COc1ccc2nc(-c3ccccn3)cc(C(=O)N[C@@H]3C[C@H]4C(=O)N[C@]5(C(=O)NS(=O)(=O)C6CC6)C[C@H]5/C=C\\CCCCC[C@H](CC(=O)N5CCCCC5)C(=O)N4C3)c2c1", "note": "[Compound 96, (2R,6R,14aR,16aS,Z)-N-(cyclopropylsulfonyl)-2-(6-methoxy-2-(pyridin-2-yl)quinoline-4-carboxamido)-5,16-dioxo-6-(2-oxo-2-(piperidin-1-yl)ethyl)-1,2,3,5,6,7,8,9,10,11, 13a,14,14a,15,16,16a-hexadecahydrocyclopropa [e]pyrrolo[1,2-a][1,4] diazacyclopentadecine-14a-carboxamide]", "EC50": "< 1000"},
      {"smiles": "COc1ccc2c(O[C@@H]3C[C@H]4C(=O)N[C@]5(C(=O)NS(=O)(=O)C6CC6)C[C@H]5/C=C\\CCCCC[C@H](CC(=O)N5CCC(F)(F)C5)C(=O)N4C3)cc(-c3ccccc3)nc2c1", "note": "[Compound 63, (2R,6R,13aS, 14aR,16aS,Z)-N-(cyclopropylsulfonyl)-6-(2-(3,3 - difluoropyrrolidin-1-yl)-2-oxoethyl)-2-(7-methoxy-2-phenylquinolin-4-yloxy)-5,16-dioxo-1,2,3,5,6,7,8,9,10,11, 13a,14,14a,15,16,16a-hexadecahydrocyclopropa [e]pyrrolo[1,2-a][1,4] diazacyclopentadecine-14a-carboxamide]", "EC50": "< 1000"},
      {"smiles": "COc1ccc2c(O[C@@H]3C[C@H]4C(=O)N[C@]5(C(=O)NS(=O)(=O)C6CC6)C[C@H]5/C=C\\CCCCC[C@H](CC(=O)NC(C)(C)C)C(=O)N4C3)cc(-c3ccccc3)nc2c1", "note": "[Compound 72, (2R,6R,13aS,14aR, 16aS,Z)-6-(2-(tert-butylamino)-2-oxoethyl)-N-(cyclopropylsulfonyl)-2-(7-methoxy-2-phenylquinolin-4-yloxy)-5,16-dioxo-1,2,3,5,6,7,8,9,10,11, 13a,14,14a,15,16,16a-hexadecahydrocyclopropa [e]pyrrolo[1,2-a][1,4] diazacyclopentadecine-14a-carboxamide]", "EC50": "< 1000"},
      {"smiles": "O=C(N[C@@H]1C[C@H]2C(=O)N[C@]3(C(=O)NS(=O)(=O)C4CC4)C[C@H]3/C=C\\CCCCC[C@H](CC(=O)N3CCC(F)(F)CC3)C(=O)N2C1)c1cc(-c2ccccc2)nc2ccccc12", "note": "[Compound 79, (2R,6R,13aS, 14aR,16aS,Z)-N-(cyclopropylsulfonyl)-6-(2-(4,4-difluoropiperidin-1-yl)-2-oxoethyl)-5,16-dioxo-2-(2-phenylquinoline-4-carboxamido)-1,2,3,5,6,7,8,9,10,11, 13a,14,14a,15,16,16a-hexadecahydrocyclopropa [e]pyrrolo[1,2-a][1,4] diazacyclopentadecine-14a-carboxamide]", "EC50": "< 1000"},
      {"smiles": "CCOC(=O)C12CC1/C=C\\CCCCC[C@@H](CC(=O)N1CCCCC1)C(=O)N1C[C@H](Oc3cc(-c4ccccc4)nc4cc(OC)ccc34)C[C@H]1C(=O)N2", "note": "(stereo partly drawn) [Compound 42, (2R,6S,16aS,Z)-ethyl 2-(7-methoxy-2-phenylquinolin-4-yloxy)-5,16-dioxo-6-(2-oxo-2-(piperidin-1-yl)ethyl)-1,2,3,5,6,7,8,9,10,11, 13a,14,14a,15,16,16a-hexadecahydrocyclopropa [e]pyrrolo[1,2-a][1,4] diazacyclopentadecine-14a-carboxylate]", "EC50": "1000 to 10000"},
      {"smiles": "COc1ccc2c(O[C@@H]3C[C@H]4C(=O)N[C@H](C(=O)NS(=O)(=O)C5CC5)C/C=C\\CCCCC[C@H](CC(=O)N5CCCCC5)C(=O)N4C3)cc(-c3ccccc3)nc2c1", "note": "[Compound 57, (3S,12R,16R,17aS,Z)-N-(cyclopropylsulfonyl)-16-(7-methoxy-2-phenylquinolin-4-yloxy)-1,13-dioxo-12-(2-oxo-2-(piperidin-1-yl)ethyl)-2,3,4,7,8,9,10,11, 12,13,15,16,17,17a-tetradecahydro-1H-pyrrolo[1,2-a][1,4] diazacyclopentadecine-3-carboxamide]", "EC50": "1000 to 10000"},
      {"smiles": "COc1ccc2c(O[C@@H]3C[C@H]4C(=O)N[C@]5(C(=O)NS(=O)(=O)C6CC6)C[C@H]5/C=C\\CCCCC[C@H](CC(=O)N5CCCC(C(F)(F)F)C5)C(=O)N4C3)cc(-c3ccccc3)nc2c1", "note": "(stereo partly drawn) [Compound 71, (2R,6R,13aS, 14aR,16aS,Z)-N-(cyclopropylsulfonyl)-2-(7-methoxy-2-phenylquinolin-4-yloxy)-5,16-dioxo-6-(2-oxo-2-(3-(trifluoromethyl)piperidin-1-yl)ethyl)-1,2,3,5,6,7,8,9,10,11, 13a,14,14a,15,16,16a-hexadecahydrocyclopropa [e]pyrrolo[1,2-a][1,4] diazacyclopentadecine-14a-carboxamide]", "EC50": "< 1000"},
      {"smiles": "COc1ccc2c(O[C@@H]3C[C@H]4C(=O)N[C@]5(C(=O)NS(=O)(=O)C6CC6)C[C@H]5/C=C\\CCCCC[C@H](CC(=O)N5CCCCC5)C(=O)N4C3)cc(-c3ccccn3)nc2c1", "note": "[Compound 74, (2R,6R,13aS, 14aR,16aS,Z)-N-(cyclopropylsulfonyl)-2-(7-methoxy-2-(pyridin-2-yl)quinolin-4-yloxy)-5,16-dioxo-6-(2-oxo-2-(piperidin-1-yl)ethyl)-1,2,3,5,6,7,8,9,10,11, 13a,14,14a,15,16,16a-hexadecahydrocyclopropa [e]pyrrolo[1,2-a][1,4] diazacyclopentadecine-14a-carboxamide]", "EC50": "< 1000"}
    ]}
  ]
}
